The values that follow come from ChEMBL document CHEMBL5579794, “Improved synthesis and evaluation of preclinical pharmacodynamic parameters of a new monocyclic β-lactam DPI-2016” (Bioorg Med Chem Lett, 2024).

The nature of series [1]: Plasma protein binding in human at 1 uM incubated for 6 hrs by LC-MS/MS analysis. Type of series: ADME, cell-free.
Series [2] is described as follows: Stability in human plasma at 1 uM measured upto 120 mins by LC-MS/MS analysis. Type of series: ADME, cell-free. Particulars: 2 h; call rule not given here.
The nature of series [3]: Stability in monkey plasma at 1 uM measured upto 120 mins by LC-MS/MS analysis. Type of series: ADME, cell-free, Macaca mulatta. The note with it: rhesus monkey, 2 h.
Series [4] is described as follows: Stability in dog plasma at 1 uM measured upto 120 mins by LC-MS/MS analysis. Type of series: ADME, cell-free, Canis lupus familiaris. The note with it: 2 h.
Series [5] in a line: Stability in rat plasma at 1 uM measured upto 120 mins by LC-MS/MS analysis. It is filed as ADME, cell-free. The note with it: 2 h.
A short description of series [6]: Stability in mouse plasma at 1 uM measured upto 120 mins by LC-MS/MS analysis. It is filed as ADME, cell-free. The note with it: 2 h.
Series [7] is described as follows: Stability in human liver microsomes at 1 uM measured up to 60 mins in presence of NADPH by LC-MS/MS analysis. It is filed as ADME, Microsome. The note with it: 1 h. For orientation: Microsomes from liver hold many membrane-bound enzymes, among them those of drug oxidation.
Series [8] in a line: Stability in monkey liver microsomes at 1 uM measured up to 60 mins in presence of NADPH by LC-MS/MS analysis. Type of series: ADME, Macaca mulatta, Microsome. The note with it: rhesus monkey, 1 h.
Series [9] can be described thus: Stability in dog microsomes at 1 uM measured up to 60 mins in presence of NADPH by LC-MS/MS analysis. It is filed as ADME, Canis lupus familiaris, Liver, Microsome. The note with it: 1 h.
Series [10] is described as follows: Stability in rat liver microsomes at 1 uM measured up to 60 mins in presence of NADPH by LC-MS/MS analysis. It is filed as ADME, Microsome. Particulars: 1 h.
Series [11] is described as follows: Stability in mouse liver microsomes at 1 uM measured up to 60 mins in presence of NADPH by LC-MS/MS analysis. Type of series: ADME, Microsome. Particulars: 1 h.
The target of a further series is Cytochrome P450 3A4 (Homo sapiens, UniProt P08684). Kind of series: Inhibition of CYP3A4 (unknown origin) at upto 100 uM. Type of series: ADME.
A further series deals with Cytochrome P450 2D6 (Homo sapiens, UniProt P10635). Nature of the series: Inhibition of CYP2D6 (unknown origin) at upto 100 uM. Type of series: ADME.
For another series, the target named is Cytochrome P450 2C19 (Homo sapiens, UniProt P33261). Kind of series: Inhibition of CYP2C19 (unknown origin) at upto 100 uM. It is filed as ADME.
For the next series, the target named is T1, Cytochrome P450 2C8 (Homo sapiens, UniProt P10632).
T1 sequence (P10632 whole entry): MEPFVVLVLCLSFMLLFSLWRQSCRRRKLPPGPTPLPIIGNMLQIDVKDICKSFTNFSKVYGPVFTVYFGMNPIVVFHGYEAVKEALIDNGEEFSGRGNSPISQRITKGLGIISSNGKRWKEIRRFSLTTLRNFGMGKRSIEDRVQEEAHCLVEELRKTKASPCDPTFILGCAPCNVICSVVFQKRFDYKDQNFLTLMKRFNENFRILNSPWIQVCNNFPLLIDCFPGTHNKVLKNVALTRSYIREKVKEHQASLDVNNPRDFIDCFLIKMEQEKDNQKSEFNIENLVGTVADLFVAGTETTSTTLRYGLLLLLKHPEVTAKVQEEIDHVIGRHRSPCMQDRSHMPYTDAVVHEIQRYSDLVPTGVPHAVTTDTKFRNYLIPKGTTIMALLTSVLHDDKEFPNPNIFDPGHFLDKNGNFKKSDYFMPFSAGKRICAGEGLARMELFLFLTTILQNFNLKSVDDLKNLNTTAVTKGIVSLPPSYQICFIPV
Kind of series: Inhibition of CYP2C8 (unknown origin) at upto 100 uM. Type of series: ADME.

The next series concerns the target Cytochrome P450 2C9 (Homo sapiens, UniProt P11712). Nature of the series: Inhibition of CYP2C9 (unknown origin) at upto 100 uM. Type of series: ADME.
For another series, the target named is T2, Cytochrome P450 2B6 (Homo sapiens, UniProt P20813).
T2 sequence (P20813 whole entry): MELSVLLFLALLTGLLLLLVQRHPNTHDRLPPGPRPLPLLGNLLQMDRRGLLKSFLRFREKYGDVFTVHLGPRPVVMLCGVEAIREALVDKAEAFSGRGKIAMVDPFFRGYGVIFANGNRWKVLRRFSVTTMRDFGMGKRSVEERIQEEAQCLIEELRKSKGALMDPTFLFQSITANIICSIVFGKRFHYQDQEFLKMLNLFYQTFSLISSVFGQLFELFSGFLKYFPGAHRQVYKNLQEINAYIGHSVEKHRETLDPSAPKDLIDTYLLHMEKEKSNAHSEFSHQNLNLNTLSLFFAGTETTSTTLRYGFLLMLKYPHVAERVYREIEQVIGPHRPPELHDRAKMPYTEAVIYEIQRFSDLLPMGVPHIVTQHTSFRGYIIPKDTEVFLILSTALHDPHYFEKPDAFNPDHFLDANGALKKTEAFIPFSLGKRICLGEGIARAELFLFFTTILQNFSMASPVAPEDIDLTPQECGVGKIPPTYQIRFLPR
Kind of series: Inhibition of CYP2B6 (unknown origin) at upto 100 uM. Type of series: ADME.

In the next series the target is T3, Cytochrome P450 1A2 (Homo sapiens, UniProt P05177).
T3 sequence (P05177 whole entry): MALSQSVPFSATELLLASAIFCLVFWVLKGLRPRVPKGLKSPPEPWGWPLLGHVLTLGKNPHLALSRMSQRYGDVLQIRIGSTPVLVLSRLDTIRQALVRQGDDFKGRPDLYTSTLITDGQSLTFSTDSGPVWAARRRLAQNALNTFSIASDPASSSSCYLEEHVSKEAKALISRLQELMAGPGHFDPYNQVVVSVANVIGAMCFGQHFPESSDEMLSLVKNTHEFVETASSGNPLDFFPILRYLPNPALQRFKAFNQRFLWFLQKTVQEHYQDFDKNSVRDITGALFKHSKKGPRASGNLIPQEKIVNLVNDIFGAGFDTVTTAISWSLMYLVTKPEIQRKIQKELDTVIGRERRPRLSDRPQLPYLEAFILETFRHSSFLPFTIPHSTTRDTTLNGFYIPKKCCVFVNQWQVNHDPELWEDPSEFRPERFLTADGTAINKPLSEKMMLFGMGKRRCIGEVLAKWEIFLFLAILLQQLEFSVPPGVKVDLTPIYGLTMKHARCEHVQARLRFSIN
Nature of the series: Inhibition of CYP1A2 (unknown origin) at upto 100 uM. Type of series: ADME.

The next series relates to HepG2. Kind of series: Cytotoxicity against human HepG2 cells at upto 300 ug/ml relative to control. It is filed as toxicity, cell-based. Particulars: up to 300 µg/mL.
The subject of a further series is NRK-52E. Nature of the series: Cytotoxicity against rat NRK-52E cells at upto 300 ug/ml relative to control. It is filed as toxicity, cell-based. Particulars: up to 300 µg/mL.
The test system of the next series is H9. Kind of series: Cytotoxicity against human H9 cells at upto 300 ug/ml relative to control. Type of series: toxicity, cell-based. The note with it: up to 300 µg/mL.
The test system of a further series is Huh-7. Kind of series: Cytotoxicity against human Huh-7 cells at 300 ug/ml relative to control. It is filed as toxicity, cell-based. The note with it: at 300 µg/mL.
Series [12] is described as follows: AUC in male Sprague-Dawley rat at 2 mg/kg by LC-MS/MS analysis. Type of series: ADME, organism-based. Particulars: in vivo.
Series [13] relates to Pseudomonas aeruginosa. Nature of the series: Antibacterial activity against Pseudomonas aeruginosa infected in BalbC mouse model of Septicaemia infection assessed as survival rate at 8 mg/kg administered 30 mins post infection and measured after 1 day relative to control. The note with it: 24 h. Type of series: functional.
For series [14], the system named is Pseudomonas aeruginosa. Kind of series: Antibacterial activity against Pseudomonas aeruginosa infected in BalbC mouse model of Septicaemia infection assessed as survival rate at 128 mg/kg administration starting at 0.5 to 2 hrs post infection and measured after 6 days relative to control. It is filed as functional. Particulars: 144 h, time 6 day.

By AUC is commonly meant the area under the concentration-time curve, a measure of exposure.

Chain of Cytochrome P450 2C19 (P33261 whole entry): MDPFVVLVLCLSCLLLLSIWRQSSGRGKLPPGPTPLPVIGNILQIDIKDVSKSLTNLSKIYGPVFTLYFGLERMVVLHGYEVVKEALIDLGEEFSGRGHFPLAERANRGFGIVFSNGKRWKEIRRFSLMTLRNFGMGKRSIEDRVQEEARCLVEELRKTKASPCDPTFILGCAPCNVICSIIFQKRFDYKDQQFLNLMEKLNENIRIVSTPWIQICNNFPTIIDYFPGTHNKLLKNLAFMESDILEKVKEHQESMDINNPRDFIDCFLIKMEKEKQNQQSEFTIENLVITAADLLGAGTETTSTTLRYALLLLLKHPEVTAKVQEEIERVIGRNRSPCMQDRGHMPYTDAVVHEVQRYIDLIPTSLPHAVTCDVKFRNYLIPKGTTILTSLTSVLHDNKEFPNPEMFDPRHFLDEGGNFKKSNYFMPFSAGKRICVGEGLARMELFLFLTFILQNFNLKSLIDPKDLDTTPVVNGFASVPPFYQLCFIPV
Chain of Cytochrome P450 2C9 (P11712 whole entry): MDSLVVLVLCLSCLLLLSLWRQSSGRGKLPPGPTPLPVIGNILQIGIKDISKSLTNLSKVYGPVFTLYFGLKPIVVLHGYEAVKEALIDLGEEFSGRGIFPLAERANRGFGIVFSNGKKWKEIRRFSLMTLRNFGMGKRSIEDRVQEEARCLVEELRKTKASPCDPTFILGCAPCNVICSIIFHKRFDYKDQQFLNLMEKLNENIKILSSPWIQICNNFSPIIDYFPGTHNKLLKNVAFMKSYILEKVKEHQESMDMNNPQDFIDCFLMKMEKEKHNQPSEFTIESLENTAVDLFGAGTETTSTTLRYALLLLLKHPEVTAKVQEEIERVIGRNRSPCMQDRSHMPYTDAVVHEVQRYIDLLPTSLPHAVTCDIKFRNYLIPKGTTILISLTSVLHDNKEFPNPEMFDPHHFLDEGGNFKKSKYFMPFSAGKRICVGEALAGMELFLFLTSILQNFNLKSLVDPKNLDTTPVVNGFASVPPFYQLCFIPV
Chain of Cytochrome P450 2D6 (P10635 whole entry): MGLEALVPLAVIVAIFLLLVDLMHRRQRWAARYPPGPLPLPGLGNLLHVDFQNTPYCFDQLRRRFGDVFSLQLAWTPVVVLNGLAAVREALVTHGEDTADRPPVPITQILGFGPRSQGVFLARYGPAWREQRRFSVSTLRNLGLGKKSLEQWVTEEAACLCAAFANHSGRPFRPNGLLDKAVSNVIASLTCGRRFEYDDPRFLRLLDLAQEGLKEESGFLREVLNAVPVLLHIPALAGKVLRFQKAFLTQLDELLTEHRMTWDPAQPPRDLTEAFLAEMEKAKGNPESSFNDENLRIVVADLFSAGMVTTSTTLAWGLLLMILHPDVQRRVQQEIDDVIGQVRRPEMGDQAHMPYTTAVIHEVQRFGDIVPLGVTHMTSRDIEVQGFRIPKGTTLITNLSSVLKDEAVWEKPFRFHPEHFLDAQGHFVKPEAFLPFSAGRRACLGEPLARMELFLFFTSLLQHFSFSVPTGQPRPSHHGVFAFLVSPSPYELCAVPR
Chain of Cytochrome P450 3A4 (P08684 whole entry): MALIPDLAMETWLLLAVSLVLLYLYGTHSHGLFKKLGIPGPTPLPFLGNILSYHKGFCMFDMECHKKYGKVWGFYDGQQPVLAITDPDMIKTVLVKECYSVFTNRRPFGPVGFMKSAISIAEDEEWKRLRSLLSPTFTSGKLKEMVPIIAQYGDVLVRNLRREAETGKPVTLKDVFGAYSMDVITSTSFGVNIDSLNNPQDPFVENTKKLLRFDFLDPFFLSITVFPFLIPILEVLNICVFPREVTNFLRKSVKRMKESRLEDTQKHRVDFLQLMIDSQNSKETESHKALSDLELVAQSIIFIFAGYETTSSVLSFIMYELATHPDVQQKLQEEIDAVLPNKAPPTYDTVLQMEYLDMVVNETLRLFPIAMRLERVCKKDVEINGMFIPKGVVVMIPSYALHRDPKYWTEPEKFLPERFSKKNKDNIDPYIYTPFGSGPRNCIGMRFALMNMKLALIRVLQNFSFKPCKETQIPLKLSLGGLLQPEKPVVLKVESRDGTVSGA

Take `Cc1sc(N)nc1/C(=N/O[C@@H](COc1ccc(C(=N)N[C@@H]2CCNC2)cc1)C(=O)O)C(=O)N[C@@H]1C(=O)N(OS(=O)(=O)O)C1(C)C`: in series [1] (read-out: PPB (converted)), the fraction unbound at 6 h, 1 µM is 0.383. For the same molecule, the Stability result in series [2], in series [3], in series [4], in series [5], in [6] and in [7] was “Stable” in each case. In addition, the Stability entry in series [8], in series [9], in series [10] and in [11] was “Stable” in each case. Besides, the “inhibition (INH)” value against Cytochrome P450 3A4, against Cytochrome P450 2D6, at Cytochrome P450 2C19, against Cytochrome P450 2C8, on Cytochrome P450 2C9 and at Cytochrome P450 2B6 was “Not Active” in each case. Moreover, on Cytochrome P450 1A2, the “inhibition (INH)” value is recorded as “Not Active”. The Activity in the series on HepG2 is > 80%; with NRK-52E it was > 80%; in the series with H9, > 80%; with Huh-7, 60%. Besides, the AUC in [12] came to 2790 ng·h/mL. Also, the survival at 8 mg/kg with Pseudomonas aeruginosa [13] is 100%.

Consider `C[C@H]1[C@H](NC(=O)/C(=N\OC(C)(C)C(=O)O)c2csc(N)n2)C(=O)N1S(=O)(=O)O` [AZTREONAM], for which the Stability entry in [1] (6 h, 1 µM) was “Stable”; in [3], “Stable”; in series [4], “Stable”; in series [5], “Stable”; in series [6] it was “Stable”; in series [7], “Stable”. Further, the Stability result in series [8], in series [9], in [10] and in [11] was “Stable” each time. Moreover, the “inhibition (INH)” value on Cytochrome P450 3A4, against Cytochrome P450 2D6, against Cytochrome P450 2C19, against Cytochrome P450 2C8, at Cytochrome P450 2C9 and against Cytochrome P450 2B6 was “Not Active” each time. Moreover, on Cytochrome P450 1A2, the “inhibition (INH)” value is given as “Not Active”. This molecule also returned an Activity with Huh-7 of 60%. This molecule also gave an AUC in [12] of 2410 ng·h/mL. Further, the survival at 128 mg/kg with Pseudomonas aeruginosa [14] came to 90%.
